In experiment [1] the target is T1, μ-opioid receptor (Homo sapiens (Human), UniProt P35372). Description: μ-opioid receptor radioligand binding assay ([3H]-diprenorphine). The conditions noted are these: binding affinity. How it is done:
μ-Opioid Receptor Binding Assay Procedures: Radioligand dose-displacement binding assays for μ-opioid receptors used 0.3 nM [^3H]-diprenorphine (Perkin Elmer, Shelton, Conn.), with […] membrane protein/well in a final volume of 500 μl binding buffer (10 mM MgCl2, 1 mM EDTA, 5% DMSO, 50 mM HEPES, pH 7.4). Reactions were carried out in the absence or presence of increasing concentrations of unlabeled naloxone. All reactions were conducted in 96-deep well polypropylene plates for 2 hours at room temperature. Binding reactions were terminated by rapid filtration onto 96-well Unifilter GF/C filter plates (Perkin Elmer, Shelton, Conn.), presoaked in 0.5% polyethylenimine using a 96-well tissue harvester (Perkin Elmer, Shelton, Conn.) followed by performing three filtration washes with 500 μl of ice-cold binding buffer. Filter plates were subsequently dried at 50° C. for 2-3 hours. BetaScint scintillation cocktail (Perkin Elmer, Shelton, Conn.) was added (50 μl/well), and plates were counted using a Packard Top-Count for 1 min/well. The data were analyzed using the one-site competition curve fitting functions in GraphPad PRISM™ v. 3.0 or higher (San Diego, Calif.), or an in-house function for one-site competition curve-fitting.

Experiment [2] deals with recombinant human kappa opioid receptor (κ) (Homo sapiens (Human), UniProt P41145). Kind of experiment: κ-opioid receptor radioligand binding assay ([3H]-U69,593). The conditions noted are these: binding affinity. The method, then: κ-Opioid Receptor Binding Assay Procedures: Membranes from HEK-293 cells, CHO cells or U-2 OS cells expressing the recombinant human kappa opioid receptor (κ) were prepared by lysing cells in ice cold hypotonic buffer (2.5 mM MgCl2, 50 mM HEPES, pH 7.4) (10 mL/10 cm dish) followed by homogenization with a tissue grinder/Teflon pestle. Membranes from a cell line naturally expressing kappa opioid receptor can also be used. Membranes were collected by centrifugation at 30,000×g for 15 min at 4° C. and pellets were resuspended in hypotonic buffer to a final concentration of 1-3 mg/mL. Protein concentrations were determined using the BioRad protein assay reagent with bovine serum albumen as standard. Aliquots of κ receptor membranes were stored at −80° C.
Radioligand dose displacement assays used 0.4 nM [^3H]-U69,593 (GE Healthcare, Piscataway, N.J.; 40 Ci/mmole) with 15 μg membrane protein (recombinant opioid receptor expressed in HEK 293 cells; in-house prep) in a final volume of 200 μl binding buffer (5% DMSO, 50 mM Trizma base, pH 7.4). Non-specific binding was determined in the presence of 10 μM unlabeled naloxone or U69,593. All reactions were performed in 96-well polypropylene plates for 1 hour at a temperature of about 25° C. Binding reactions were terminated by rapid filtration onto 96-well Unifilter GF/C filter plates (Perkin Elmer, Shelton, Conn.) presoaked in 0.5% polyethylenimine (Sigma). Harvesting was performed using a 96-well tissue harvester (Perkin Elmer, Shelton, Conn.) followed by five filtration washes with 200 μl ice-cold binding buffer. Filter plates were subsequently dried at 50° C. for 1-2 hours. Fifty μl/well scintillation cocktail (Perkin Elmer, Shelton, Conn.) was added and plates were counted in a Packard Top-Count for 1 min/well.

Experiment [3] has as its target T1, μ-opioid receptor. Description: μ-opioid receptor [35S]GTPγS functional assay, HEK-293 or CHO cells (Table 4). Conditions: for Emax: relative to DAMGO; for EC50: μ GTP. Format: biochemical. The procedure, abridged:
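Membranes from HEK-293, CHO or U-2 OS cells (or commercial) expressing recombinant μ receptor; 0.20 nM [35S]GTPγS, 3 mM GDP, saponin, in 100 mM NaCl/10 mM MgCl2/20 mM HEPES pH 7.4.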

The target in experiment [4] is T2, κ-opioid receptor (Homo sapiens (Human), UniProt P41145). Kind of experiment: κ-opioid receptor [35S]GTPγS functional assay, HEK-293 or CHO cells (Table 4). Format: biochemical. Conditions: for Emax: relative to U69,593; for EC50: κ GTP. The method, then: κ-Opioid Receptor Functional Assay Procedures: Functional [^35S]GTPγS binding assays were conducted as follows. κ opioid receptor membrane solution was prepared by sequentially adding final concentrations of 0.026 μg/μl κ membrane protein (in-house), 10 μg/mL saponin, 3 μM GDP and 0.20 nM [^35S]GTPγS to binding buffer (100 mM NaCl, 10 mM MgCl2, 20 mM HEPES, pH 7.4) on ice. The prepared membrane solution (190 μl/well) was transferred to 96-shallow well polypropylene plates containing 10 μl of 20× concentrated stock solutions of agonist prepared in DMSO. Plates were incubated for 30 min at a temperature of about 25° C. with shaking. Reactions were terminated by rapid filtration onto 96-well Unifilter GF/B filter plates (Perkin Elmer, Shelton, Conn.) using a 96-well tissue harvester (Packard) and followed by three filtration washes with 200 μl ice-cold binding buffer (10 mM NaH2PO4, 10 mM Na2HPO4, pH 7.4). Filter plates were subsequently dried at 50° C. for 2-3 hours. Fifty μl/well scintillation cocktail (Perkin Elmer, Shelton, Conn.) was added and plates were counted in a Packard Top-Count for 1 min/well.
κ GTP Emax (%) is the maximal effect elicited by a compound relative to the effect elicited by U69,593.
In TABLE 4, activity response of certain Compounds of the Invention to the μ- and κ-opioid receptors was determined as described above for functional assays using HEK-293 or CHO cells.
On the technique in general: GTPγS resists hydrolysis and so accumulates on activated G proteins.

In experiment [5] the target is T1, μ-opioid receptor. Description: μ-opioid receptor [35S]GTPγS functional assay, U-2 OS cells (Table 5). Format: biochemical. Conditions: for Emax: relative to DAMGO; for EC50: μ GTP. The procedure, abridged: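 Membranes (0.026 mg/mL) from cells expressing recombinant human μ-opioid receptor in a U-2 OS background were incubated with 0.20 nM [35S]GTPγS, 3 mM GDP and saponin in 20 mM HEPES pH 7.4, 100 mM NaCl, 10 mM MgCl2 for 30 min at about 25 °C. Filter-bound radioactivity counted; sigmoidal dose-response fits gave values, Emax relative to DAMGO.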

The target of experiment [6] is T2, κ-opioid receptor. Kind of experiment: κ-opioid receptor [35S]GTPγS functional assay, U-2 OS cells (Table 5). The conditions noted are these: for Emax: relative to U69,593; for EC50: κ GTP. Format: biochemical. The procedure, abridged:
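[35S]GTPγS binding in κ receptor membranes (0.026 μg/μl protein) with 10 μg/mL saponin, 3 μM GDP and 0.20 nM [35S]GTPγS in pH 7.4 HEPES/NaCl/MgCl2 buffer. Agonist incubation lasted 30 min at about 25 °C, followed by filtration and scintillation counting. Emax is expressed relative to U69,593.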

The structures appear in SMILES notation.

By Ki is commonly meant a measure of affinity in units of concentration, obtained from inhibition or displacement. In general, Emax refers to the greatest response seen or fitted, relative to the assay's reference. As a reminder, the EC50 is the concentration giving half of the maximal effect. Regarding `O=C(O)[C@@H]1C[C@]23CCN(CC4CC4)[C@H](Cc4ccc(O)cc42)[C@]3(O)C1` [Compound 16, (2R,3aS,4R,9bS)-12-(cyclopropylmethyl)-3a,8-dihydroxy-1,2,3,3a,4,5-hexahydro-4,9b-(epiminoethano)-cyclopenta-[a]naphthalene-2-carboxylic acid], the Ki on μ-opioid receptor [1] came out at 55.6 ± 11 nM; in experiment [2], 17.3 ± 6.19 nM. The maximal response (Emax) was found to be 1% on μ-opioid receptor [3], 38 ± 2.04% at κ-opioid receptor [4], 31.8 ± 3.07% at μ-opioid receptor [5] and 90.7 ± 5.81% on κ-opioid receptor [6]. The EC50 was above 20 µM at μ-opioid receptor [3] (bound given in μM), 12.4 ± 3.66 nM on κ-opioid receptor [4], 4.75 ± 0.62 nM at μ-opioid receptor [5] and 13.2 ± 1.86 nM on κ-opioid receptor [6].
Turning to `COC(=O)[C@@H]1C[C@]23CCN(CC4CC4)[C@H](Cc4ccc(O)cc42)[C@]3(O)C1` [Compound 12, (2R,3aS,4R,9bS)-methyl-12-(cyclopropylmethyl)-3a,8-dihydroxy-1,2,3,3a,4,5-hexahydro-4,9b-(epimino-ethano)cyclopenta[a]naphthalene-2-carboxylate], the Ki on μ-opioid receptor [1] was 0.53 ± 0.076 nM; in experiment [2], 0.3 ± 0.056 nM. The Emax was 1% on μ-opioid receptor [3], 82.7 ± 1.2% on κ-opioid receptor [4], 55.6 ± 3.83% on μ-opioid receptor [5] and 108 ± 3.51% on κ-opioid receptor [6]. Besides, the EC50 was above 20 µM on μ-opioid receptor [3] (bound given in μM), 2.95 ± 1.06 nM at κ-opioid receptor [4], 1.22 ± 0.27 nM on μ-opioid receptor [5] and 1.7 ± 0.26 nM on κ-opioid receptor [6].
Take `N=C(N)NCCCCNC(=O)[C@@H]1C[C@]23CCN(CC4CC4)[C@H](Cc4ccc(O)cc42)[C@]3(O)C1` [Compound 7, (2R,3aS,4R,9bS)-12-(cyclopropylmethyl)-N-(4-guanidinobutyl)-3a,8-dibydroxy-1,2,3,3a,4,5-hexahydro-4,9b-(epimino-ethano)cyclopenta[a]naphthalene-2-carboxamide]: the Ki on μ-opioid receptor [1] stood at 23.6 ± 5.56 nM; in experiment [2], 0.13 ± 0.018 nM. Moreover, the Emax at μ-opioid receptor [3] came to 1%; on κ-opioid receptor [4] it was 57.5 ± 1.66%; on μ-opioid receptor [5] it was 56.3 ± 2.6%; on κ-opioid receptor [6], 101 ± 3.67%. The EC50 on μ-opioid receptor [3] (bound given in μM) was above 20 µM; on κ-opioid receptor [4], 0.8 ± 0.26 nM; at μ-opioid receptor [5] it was 8.94 ± 1.31 nM; on κ-opioid receptor [6] it was 1.16 ± 0.16 nM.
Turning to `O=C(NCCN1CCOCC1)[C@H]1C[C@]23CCN(CC4CC4)[C@H](Cc4ccc(O)cc42)[C@]3(O)C1` [Compound 93, (2S,3aS,4R,9bS)-12-(cyclopropylmethyl)-3a,8-dihydroxy-N-(2-morpholinoethyl)-1,2,3,3a,4,5-hexahydro-4,9b-(epimino-ethano)cyclopenta[a]naphthalene-2-carboxamide], the Ki in experiment [2] was 0.64 ± 0.071 nM. At μ-opioid receptor [3], this molecule gave an Emax of 28.8 ± 4.91% and an EC50 of 0.00395 ± 0.00065 µM. Also, at κ-opioid receptor [4], the Emax was 81.5 ± 1.27% and a half-maximal response (EC50) required 1.52 ± 0.17 nM.
For the molecule `COc1ccc2c(c1)[C@]13CCN(CC4CC4)[C@H](C2)[C@]1(O)C[C@H](C(N)=O)C3` [Compound 11, (2R,3aS,4R,9bS)-12-(cyclopropylmethyl)-3a-hydroxy-8-methoxy-1,2,3,3a,4,5-hexahydro-4,9b-(epiminoethano)cyclo-penta[a]naphthalene-2-carboxamide], the Ki is 2980 ± 466 nM on μ-opioid receptor [1] and 182 ± 29.2 nM in experiment [2]. On κ-opioid receptor [6], this molecule came in with an Emax of 103 ± 1.67%. The molecule further came in with an EC50 at κ-opioid receptor [6] of 1360 ± 49.8 nM.
In the case of `O=C(NCc1ccccc1)[C@H]1C[C@]23CCN(CC4CC4)[C@H](Cc4ccc(O)cc42)[C@]3(O)C1` [Compound 34, (2S,3aS,4R,9bS)-N-benzyl-12-(cyclopropylmethyl)-3a,8-dihydroxy-1,2,3,3a,4,5-hexahydro-4,9b-(epiminoethano)cyclopenta[a]naphthalene-2-carboxamide], in experiment [2], the Ki is 0.083 ± 0.014 nM. For the same molecule, the Emax at μ-opioid receptor [3] was 40 ± 1.53%; at κ-opioid receptor [4] it was 102 ± 2.73%; at μ-opioid receptor [5] it was 94 ± 0.58%; on κ-opioid receptor [6] it was 93.3 ± 3.18%. Besides, the EC50 at μ-opioid receptor [3] was determined as 0.00375 ± 0.00066 µM; on κ-opioid receptor [4], 0.094 ± 0.011 nM; on μ-opioid receptor [5], 0.25 ± 0.027 nM; at κ-opioid receptor [6], 0.02 nM.
Turning to `NC(=O)[C@H]1C[C@]23CCN(CC4CC4)[C@H](Cc4ccc(O)cc42)[C@]3(O)C1` [Compound 30, (2S,3aS,4R,9bS)-12-(cyclopropylmethyl)-3a,8-dihydroxy-1,2,3,3a,4,5-hexahydro-4,9b-(epiminoethano)cyclopenta-[a]naphthalene-2-carboxamide], the Emax on μ-opioid receptor [3] was found to be 1%; at κ-opioid receptor [4], 50.7 ± 0.33%; on μ-opioid receptor [5] it was 32 ± 1.15%; at κ-opioid receptor [6], 100 ± 1.2%. Further, the concentration for a half-maximal effect (EC50) on μ-opioid receptor [3] (bound given in μM) was above 20 µM; on κ-opioid receptor [4], 2.49 ± 0.09 nM; at μ-opioid receptor [5] it was 1.62 ± 0.41 nM; at κ-opioid receptor [6], 1.26 ± 0.05 nM.
With `O=C(NCc1ccc(Cl)c(Cl)c1)[C@H]1C[C@]23CCN(CC4CC4)[C@H](Cc4ccc(O)cc42)[C@]3(O)C1` [Compound 47, (2S,3aS,4R,9bS)-12-(cyclopropylmethyl)-N-(3,4-dichlorobenzyl)-3a,8-dihydroxy-1,2,3,3a,4,5-hexahydro-4,9b-(epimino-ethano)cyclopenta[a]naphthalene-2-carboxamide], the Emax at μ-opioid receptor [3] was 86 ± 3.46%; at κ-opioid receptor [4], 88.8 ± 10%; at μ-opioid receptor [5] it was 98.8 ± 1.49%; at κ-opioid receptor [6], 95 ± 5.29%. Further, the EC50 on μ-opioid receptor [3] was determined as 0.00276 ± 8.2e-05 µM; on κ-opioid receptor [4], 0.03 ± 0.01 nM; on μ-opioid receptor [5], 0.05 ± 0.01 nM; at κ-opioid receptor [6] it was 0.015 nM.
For the molecule `O=C(NCc1ccc(O)cc1O)[C@@H]1C[C@]23CCN(CC4CC4)[C@H](Cc4ccc(O)cc42)[C@]3(O)C1` [Compound 41, (2R,3aS,4R,9bS)-12-(cyclopropylmethyl)-N-(2,4-dihydroxybenzyl)-3a,8-dihydroxy-1,2,3,3a,4,5-hexahydro-4,9b-(epimino-ethano)cyclopenta[a]naphthalene-2-carboxamide], the Emax on μ-opioid receptor [3] was found to be 1%; at κ-opioid receptor [4], 35.8 ± 3.07%; at μ-opioid receptor [5] it was 25.3 ± 1.33%; on κ-opioid receptor [6] it was 86.7 ± 6.74%. Further, the EC50 at μ-opioid receptor [3] (bound given in μM) is above 20 µM; on κ-opioid receptor [4], 1.74 ± 0.47 nM; at μ-opioid receptor [5], 4.19 ± 1.02 nM; at κ-opioid receptor [6] it was 1.02 ± 0.08 nM.

Source of the values: patent US9656962B2, “Ring-contracted morphinans and the use thereof” (Purdue Pharma L.P., priority 2013, dated 2017).
